This note sets out measurements from patent publication US4973578A, “Synthetic peptides derived from the alpha-subunit of human lycoprotein hormones” (Mayo Foundation for Medical Education and Research, priority 1988, dated 1990).

Values joined by “and” are separate entries in the source; they are usually repeats but may differ in a detail not shown here. Equal entries are not always repeated. “Also recorded” adds a separate entry of the source. Residues, ends and D or L forms follow the SMILES beside them.

Series [1] in a line: Solubility of peptide in assay buffers. The format is physicochemical.
Series [2] concerns the target T1, TSH receptor on human thyroid membranes (Homo sapiens, UniProt P16473).
T1 construct: Thyroid tissue obtained at surgery from patients with Graves' disease was prepared as described by Takahashi et al; from tissue; host or cells: human thyroid tissue from Graves' disease patients, 2000xg membrane fraction
As to the kind of experiment: TSH radioreceptor assay: inhibition of 125I-bTSH binding to human thyroid membrane preparations. The following applies: for IC50: human thyroid membrane homogenates, ± S.E., read-out: bTSH ED50 (effective dose necessary to inhibit binding of 125I-bTSH by 50%); for inhibition of 125I-bTSH binding, result in words: human thyroid membranes. The protocol: Thyroid tissue obtained at surgery from patients with Graves' disease was prepared as described by Takahashi et al., J. Clin. Endocrinol. Metab. 47:870 (1978), the disclosure of which is incorporated herein. Briefly, the tissue was dissected free of fibrous material, minced with scissors, and homogenized with Polytron homogenizer. The 2000×g fraction was collected by centrifugation, washed and resuspended in 40 mM Tris, 0.1% Bovine Serum Albumin (BSA) pH 7.4 at a concentration of 100 mg equivalents of wet tissue per milliliter. The preparation was stored at -70° C. until used for assay.
Highly purified bovine TSH (30 IU/mg, supplied by Dr. J. G. Pierce, UCLA) was radio-iodinated (Na^125 I, Amersham, Chicago) by a gentle lactoperoxidase procedure described by Takahashi et al., supra, then purified by Sephadex G-100 chromatography.
The membrane assay incubation mixture consisted of […] of the 2000×g membrane fraction, 0.125 ng ^125 I bTSH (approximately 20,000 cpm, 5×10^-12 M), 100 ul of 1% Triton X-100 and noted amounts of test materials in a final volume of 0.5 ml of 40 mM Tris-HCl pH 7.4 plus 0.1% BSA. Nonspecific binding was determined by addition of excess unlabeled bTSH (200 mU/ml, Sigma, St. Louis). After 2 hrs incubation at 25° C., 200 ul of 5 mg/ml bovine gamma globulin and 1 ml 30% polyethylene glycol 6000 (Baker, Phillipsburg, N.J.) in 1M NaCl was added to each tube and the tubes centrifuged at 4000 rpm for 25 minutes. The supernatants were aspirated and pellets counted in a gamma counter. Specific binding averaged 25% of total counts.
FIG. 1 reports 5×10^-12 M labeled bTSH incubated with 10 mg equivalents (wet weight) of 2000×g fraction of thyroid membranes with varying concentrations of unlabeled TSH or synthetic α-subunit peptides. Nonspecific binding was determined in the presence of excess unlabeled TSH.

In series [3] the test system is TSH mediated cAMP generation in FRTL-5 cells. As to the kind of experiment: Inhibition of TSH mediated cAMP generation in FRTL-5 cells. The format is cell-based, rat. The conditions noted are these: for percent inhibition of TSH mediated cAMP generation: 200 mU/L bTSH, 2 hrs 37° C. The protocol: FRTL-5 cells were maintained in Ham's F-12 medium supplemented with 5% calf serum and a 6 hormone preparation including 10 mU/ml bTSH as described by Ambesi-Impiombato et al., Proc. Natl. Acad. Sci. U.S.A., 77:3455 (1980), the disclosure of which is incorporated herein. For all assays herein described, the cells were plated in 24 well plates and grown for 3 days at 37° C. then maintained for 5-7 days in medium supplemented with 10 ug insulin alone prior to assay.
The bioassay was a modification of those previously described by Bidey et al, J. Endocrinol., 101:269 (1984); and Kasagi et al., ACTA Endocrinol., 115:30 (1987). To duplicate culture wells were added varying concentrations of test materials (see below) in a final volume of 300 ul of NaCl free HBSS with 0.5 mM iso-butyl-methyl-xanthine (IBMX, Sigma, St. Louis). In stimulation assays, only synthetic α-subunit peptides were added to the incubation medium. For inhibition assays, the noted concentrations of synthetic α-subunit peptides were added immediately prior to the addition of 200 mU/L bTSH. The plates were incubated at 37° C. in 5% CO2 for 2 hrs then 100 ul of incubation medium was removed and diluted in 900 ul of 0.05M sodium acetate pH 6.2 and assayed for cAMP content by RIA in accordance with procedures described by Wray and Glinos, Am. J. Physiol., 234 (Cell Phisol. 3):C131(1978)); and Steiner et al., J. Biol. Chem., 247:1106 (1972). […] Basal cAMP levels were determined in the presence of HBSS and IBMX alone. In inhibition assays percent inhibition was calculated as follows: [formula]
FIG. 4 reports data obtained for TSH deprived FRTL-5 cells incubated with a fixed amount of bTSH (200 mU/l) by itself or with various concentrations of synthetic peptides. cAMP content of medium was measured after 2 hrs. incubation at 37° C. Percent inhibition of cAMP generation was calculated as noted above.

For series [4], the system named is thyroid stimulating immunoglobulin (TSI) stimulated cAMP in FRTL-5 cells. In words: TSI bioassay: inhibition of thyroid stimulating immunoglobulin activity (PEG-precipitated patient immunoglobulin) in FRTL-5 cells. The format is cell-based, rat. The following applies: for Percent inhibition of TSI activity, mean: mean of patient samples tested. The source says: Ten patients (8 women and 2 men) with Graves' disease and high levels of TSI were identified after evaluation by FRTL-5 cell bioassay in the clinical chemistry laboratory. (FRTL-5 bioassay described below employing known TSH receptor recognition of various species hormones) Consecutive samples that had indices greater than 15 and sufficient serum remaining for further evaluation were chosen. Seven of the 10 had serum thyroxine values above the normal range and 9 of 10 had TSH levels below the euthyroid range by sensitive immunoradiometric assay [Boots-Celltech Sucrosep, Berkshire, UK, conducted as described in Klee and Hay, J. Clin. Endocrinol. Metab., 64:461 (1987)]. (FIG. 5). For comparison serum from 13 normal subjects was examined for TSI at the same serum dilution as the patient sera. (FIG. 5).
FRTL-5 cells were maintained in Ham's F-12 medium supplemented with 5% calf serum and a 6-hormone preparation (6H) as described by Ambesi-Impiombato, supra. The cells were removed from flasks enzymatically, plated at 150,000 cells per well in 24 well plates, and grown in 6H medium for 4 days. The medium was then replaced with fresh medium supplemented with insulin only (1H) for 7 days prior to assay. The bioassay was a modification of that described by Kasagi et al., supra. Briefly, immunoglobulins were precipitated from 2 ml of serum with 6 ml 20% polyethylene glycol 6000 (Baker, Phillipsburg, N.J.), centrifuged at 2800×g for 20 minutes, and then reconstituted in 2.4 ml buffer (NaCl-free Hanks balanced salt solution, NaCl-free HBSS), containing 1 mM iso-butyl-methyl-xanthine (IBMX, Sigma, St. Louis) and 1.5% BSA. After washing the cells with HBSS, 150 ul of buffer was added to the wells plus varying concentrations of synthetic α-subunit peptides followed immediately by 150 ul of the crude immunoglobulin extract. The plates were incubated for 2 hours at 37° C., 5% CO2 after which 100 ul of medium was removed and diluted in 900 ul 50 mM sodium acetate buffer, pH 6.2. cAMP content was determined by radioimmunoassay using the procedures described in Wray and Glinos, supra and Steiner et al., supra. Basal cAMP levels were determined in the absence of immunoglobulin extract and synthetic peptides for each plate. Basal and maximum levels were determined in quadruplicate; peptide effects were measured in duplicate at each concentration.
Percent increase in cAMP levels over basal was calculated as below: [formula]
Percent inhibition of TSI activity by the synthetic α-subunit peptides was calculated as follows: [formula]
cAMP levels in the presence of synthetic peptides were compared to maximum levels using student's T test for paired samples. Mean percent inhibition between different peptides were compared with student's T test for independent samples. Correlations were determined by Pearson's R.

T1 sequence (P16473 21-764): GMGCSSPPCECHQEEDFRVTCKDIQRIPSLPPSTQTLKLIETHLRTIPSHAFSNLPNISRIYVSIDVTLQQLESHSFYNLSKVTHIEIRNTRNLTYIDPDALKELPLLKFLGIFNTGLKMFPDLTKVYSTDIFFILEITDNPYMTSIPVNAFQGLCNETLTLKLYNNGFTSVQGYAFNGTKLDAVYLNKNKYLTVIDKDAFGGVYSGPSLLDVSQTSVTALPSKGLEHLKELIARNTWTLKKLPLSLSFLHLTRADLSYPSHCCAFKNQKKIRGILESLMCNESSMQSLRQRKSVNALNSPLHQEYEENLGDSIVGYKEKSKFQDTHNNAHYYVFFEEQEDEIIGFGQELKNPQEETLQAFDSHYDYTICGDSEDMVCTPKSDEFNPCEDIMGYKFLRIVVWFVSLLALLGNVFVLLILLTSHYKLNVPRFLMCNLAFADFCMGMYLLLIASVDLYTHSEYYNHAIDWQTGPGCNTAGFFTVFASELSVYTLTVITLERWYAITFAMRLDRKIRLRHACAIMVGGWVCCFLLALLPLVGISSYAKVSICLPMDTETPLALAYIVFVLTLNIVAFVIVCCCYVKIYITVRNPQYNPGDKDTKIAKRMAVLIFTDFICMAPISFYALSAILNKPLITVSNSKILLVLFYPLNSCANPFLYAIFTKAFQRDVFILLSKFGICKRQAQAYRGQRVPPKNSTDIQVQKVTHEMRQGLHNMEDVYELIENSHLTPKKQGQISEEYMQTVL

Turning to `CC[C@H](C)[C@H](NC(=O)[C@@H]1CCCN1C(=O)[C@H](C)NC(=O)CNC(=O)[C@@H]1CCCN1)C(=O)N[C@@H](CC(C)C)C(=O)N[C@@H](CCC(N)=O)C(=O)N[C@@H](CS)C(=O)N[C@@H](CCSC)C(=O)NCC(=O)N[C@@H](CS)C(=O)N[C@@H](CS)C(=O)N[C@@H](Cc1ccccc1)C(=O)N[C@@H](CO)C(=O)N[C@@H](CCCNC(=N)N)C(N)=O` [α21-35, Pro--Gly--Ala--Pro--Ile--Leu--Gln--Cys--Met--Gly--Cys--Cys--Phe--Ser--Arg] (H-PGAPILQCMGCCFSR-NH2), the “behaviour in cell binding assay buffer” value in series [1] (FRTL-5 cell binding assay buffer) is listed as “precipitated in the assay buffer”. In addition, the “behaviour in soluble membrane assay” value in series [1] (soluble membrane assay (FIG. 1)) was “remained in solution”. The “displacement of 125I-bTSH label” value in series [2] (at concentrations greater than 1×10^-5 m, FIG. 1) was “more than 80%”. In addition, the IC50 in series [2] was 39.9 ± 0.4 µM. In addition, in series [2] (FIG. 1), the “inhibition of 125I-bTSH binding, result in words” value is on record as “dose dependent inhibition”. For the same compound, the “percent inhibition of TSH mediated cAMP generation” value in series [3] (peptide 66.7 ug/ml) is given as 33.88%; in series [3] (peptide 133.3 ug/ml), 52.50%.
With `C[C@H](N)C(=O)N[C@@H](CS)C(=O)N[C@@H](Cc1c[nH]cn1)C(=O)N[C@@H](CS)C(=O)N[C@@H](CO)C(=O)N[C@H](C(=O)N[C@@H](CS)C(=O)N[C@@H](Cc1ccc(O)cc1)C(=O)N[C@@H](Cc1ccc(O)cc1)C(=O)N[C@@H](Cc1c[nH]cn1)C(=O)N[C@@H](CCCCN)C(=O)N[C@@H](CO)C(=O)O)[C@@H](C)O` [α81-92, Ala--Cys--His--Cys--Ser--Thr--Cys--Tyr--Tyr--His--Lys--Ser(OH)] (H-ACHCSTCYYHKS-OH), the “inhibition of cAMP generated by patient immunoglobulin, in words” value in series [4] (FIG. 7 and Table 6) is listed as “did not significantly inhibit”. Also, the “Percent inhibition of TSI activity” value is reported as -18.5% in series [4] (Pt. sample D, peptide 66.7 ug/ml); -7.8% in series [4] (Pt. sample D, peptide 133 ug/ml); 29.7% in series [4] (Pt. sample E, peptide 66.7 ug/ml); 33.6% in series [4] (Pt. sample E, peptide 133 ug/ml); 9.6% in series [4] (Pt. sample F, peptide 66.7 ug/ml); -5.1% in series [4] (Pt. sample F, peptide 133 ug/ml). Moreover, the “Percent inhibition of TSI activity” value in series [4] (Pt. sample G, peptide 66.7 ug/ml) was 19.0%; in series [4] (Pt. sample G, peptide 133 ug/ml), 14.5%; in series [4] (Pt. sample H, peptide 66.7 ug/ml) it was 0.6%; in series [4] (Pt. sample H, peptide 133 ug/ml), -11.4%; in series [4] (Pt. sample I, peptide 66.7 ug/ml) it was -13.3%; in series [4] (Pt. sample I, peptide 133 ug/ml), -17.0%. Besides, the “Percent inhibition of TSI activity” value in series [4] (Pt. sample J, peptide 66.7 ug/ml) was -2.0%; in series [4] (Pt. sample J, peptide 133 ug/ml), -7.7%. Also, the “Percent inhibition of TSI activity, mean” value in series [4] (peptide 66.7 ug/ml) is 3.6%; in series [4] (peptide 133 ug/ml), -0.1±6.2% and -0.1%. In addition, the “patient Ig samples with statistically significant inhibition of cAMP” value in series [4] (peptide 133 ug/ml) is “none of the 7”. The IC50 in series [2] came to 175 ± 3.8 µM. Further, the “inhibition of 125I-bTSH binding, result in words” value in series [2] (FIG. 1) is reported as “dose dependent inhibition; also recorded: considerably less potent”. Moreover, the “percent inhibition of TSH mediated cAMP generation” value in series [3] (peptide 66.7 ug/ml) is listed as 18.03%; in series [3] (peptide 133.3 ug/ml), 20.83%. Moreover, in series [3] (same concentrations as the active peptides), the “inhibition of TSH mediated cAMP generation, in words” value is on record as “did not significantly inhibit TSH stimulation of cAMP production; also recorded: little or no ability to inhibit TSH mediated cAMP generation”.
